In brackets after ≈: the same amount, converted by molar mass. One block for each molecule: values may come before it.
Columns and labels:
[1] = target: T1, Poly [ADP-ribose] polymerase 1 (Homo sapiens, UniProt P09874); test: Inhibition of PARP1 (unknown origin) incubated for 60 mins by absorbance based analysis
[2] = target: T1, Poly [ADP-ribose] polymerase 1; test: Inhibition of PARP1 (unknown origin) incubated for 60 mins by ELISA assay
[3] = target: T1, Poly [ADP-ribose] polymerase 1; test: Inhibition of PARP1 (unknown origin)
[4] = target: T1, Poly [ADP-ribose] polymerase 1; test: Inhibition of PARP1 CD (unknown origin) by colorimetric assay
[5] = target: T1, Poly [ADP-ribose] polymerase 1; test: Inhibition of PARP1 (unknown origin) using Streptavidin-HRP as substrate incubated for 1 hr by absorbance based analysis
[6] = Lipophilicity, logP of compound; format: physicochemical; settings: octanol/water
[7] = Dissociation constant, pKa of the compound under acidic condition; format: physicochemical
[8] = Solubility of the compound; format: physicochemical
[9] = target: Voltage-gated inwardly rectifying potassium channel KCNH2 (Homo sapiens, UniProt Q12809); test: Inhibition of hERG; format: toxicity
Voltage-gated inwardly rectifying potassium channel KCNH2, sequence (Q12809 whole entry): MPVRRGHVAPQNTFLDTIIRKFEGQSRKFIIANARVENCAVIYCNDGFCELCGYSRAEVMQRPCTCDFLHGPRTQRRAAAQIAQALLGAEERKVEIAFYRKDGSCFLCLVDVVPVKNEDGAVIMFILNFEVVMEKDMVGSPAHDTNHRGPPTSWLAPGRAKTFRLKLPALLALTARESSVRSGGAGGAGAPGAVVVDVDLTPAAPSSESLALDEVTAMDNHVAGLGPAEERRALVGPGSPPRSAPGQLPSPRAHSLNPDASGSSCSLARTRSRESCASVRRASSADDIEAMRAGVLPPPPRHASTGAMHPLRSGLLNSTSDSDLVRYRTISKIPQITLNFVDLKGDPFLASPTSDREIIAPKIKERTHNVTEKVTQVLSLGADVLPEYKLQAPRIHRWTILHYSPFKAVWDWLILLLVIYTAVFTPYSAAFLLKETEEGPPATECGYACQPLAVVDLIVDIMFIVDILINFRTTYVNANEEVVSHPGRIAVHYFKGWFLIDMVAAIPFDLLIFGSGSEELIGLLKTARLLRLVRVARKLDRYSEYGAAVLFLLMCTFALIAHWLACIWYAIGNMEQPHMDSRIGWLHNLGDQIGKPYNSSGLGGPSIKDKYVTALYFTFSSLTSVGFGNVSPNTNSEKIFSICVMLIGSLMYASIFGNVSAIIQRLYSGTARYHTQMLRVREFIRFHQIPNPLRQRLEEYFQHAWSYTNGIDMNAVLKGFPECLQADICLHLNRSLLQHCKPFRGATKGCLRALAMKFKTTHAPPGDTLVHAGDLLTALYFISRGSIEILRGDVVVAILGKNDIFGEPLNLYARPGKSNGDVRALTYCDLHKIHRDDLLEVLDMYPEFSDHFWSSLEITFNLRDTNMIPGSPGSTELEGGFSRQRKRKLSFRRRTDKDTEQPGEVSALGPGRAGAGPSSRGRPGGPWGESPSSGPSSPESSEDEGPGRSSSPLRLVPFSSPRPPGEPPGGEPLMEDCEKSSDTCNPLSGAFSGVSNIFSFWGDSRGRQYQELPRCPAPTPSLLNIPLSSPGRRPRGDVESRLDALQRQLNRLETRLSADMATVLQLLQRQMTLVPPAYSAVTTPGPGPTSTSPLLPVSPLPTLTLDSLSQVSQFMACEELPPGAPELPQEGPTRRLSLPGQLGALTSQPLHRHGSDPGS

[10] = Lipophilicity, logD of compound at pH 7.4; format: physicochemical; settings: buffer
[11] = Dissociation constant, pKa of the compound under basic condition; format: physicochemical

T1 sequence (P09874 whole entry): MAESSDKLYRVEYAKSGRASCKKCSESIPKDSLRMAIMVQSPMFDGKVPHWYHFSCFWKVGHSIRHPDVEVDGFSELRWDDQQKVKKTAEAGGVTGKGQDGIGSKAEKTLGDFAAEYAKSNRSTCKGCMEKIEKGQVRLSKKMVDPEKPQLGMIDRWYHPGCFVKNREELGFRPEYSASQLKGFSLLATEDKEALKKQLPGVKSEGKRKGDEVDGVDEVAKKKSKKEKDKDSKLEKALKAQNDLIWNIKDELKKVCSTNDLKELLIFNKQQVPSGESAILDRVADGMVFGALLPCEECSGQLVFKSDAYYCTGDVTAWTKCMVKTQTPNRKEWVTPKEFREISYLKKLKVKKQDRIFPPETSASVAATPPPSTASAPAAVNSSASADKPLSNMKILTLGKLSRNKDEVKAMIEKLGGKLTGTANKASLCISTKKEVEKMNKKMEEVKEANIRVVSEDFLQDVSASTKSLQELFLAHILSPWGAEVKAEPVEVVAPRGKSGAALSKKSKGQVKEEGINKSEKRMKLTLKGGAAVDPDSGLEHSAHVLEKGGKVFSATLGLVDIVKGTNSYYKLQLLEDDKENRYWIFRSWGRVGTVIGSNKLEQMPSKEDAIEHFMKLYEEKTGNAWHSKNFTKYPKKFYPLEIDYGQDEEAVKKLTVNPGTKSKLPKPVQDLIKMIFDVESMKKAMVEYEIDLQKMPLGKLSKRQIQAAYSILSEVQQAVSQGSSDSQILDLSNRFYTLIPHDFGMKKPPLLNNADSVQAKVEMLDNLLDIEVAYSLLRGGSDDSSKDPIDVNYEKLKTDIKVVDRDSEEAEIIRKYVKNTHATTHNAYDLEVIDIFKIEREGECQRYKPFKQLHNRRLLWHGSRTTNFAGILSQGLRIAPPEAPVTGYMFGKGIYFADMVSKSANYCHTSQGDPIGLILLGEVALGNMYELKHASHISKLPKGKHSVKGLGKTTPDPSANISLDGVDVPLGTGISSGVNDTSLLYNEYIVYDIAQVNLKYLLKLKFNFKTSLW

IC50 [1]: 1600 nM
SMILES: C[N+]1(C)CCc2cc(O)c(O)cc2[C@H]1Cc1ccc(O)c(O)c1

IC50 [2]: 560 nM
SMILES: O=C(CSc1nc2sc3c(c2c(=O)[nH]1)CCC3)N(CCO)CCO

IC50 [3]: 19 nM
SMILES: O=C1CCc2cc(-c3ccccc3F)ccc2C2(CCCCC2)N1

IC50 [4]: 2.31 nM
SMILES: CC1=C(NN)SC(NNS(=O)(=O)c2ccc3[nH]c(=O)c(=O)[nH]c3c2)N1C(=O)c1ccccc1 (configuration not stated)

IC50 [4]: 8.25 nM
SMILES: CC(=O)C1=C(C)N(C(=O)c2ccccc2)C(NNS(=O)(=O)c2ccc3[nH]c(=O)c(=O)[nH]c3c2)S1 (configuration not stated)

IC50 [5]: 36.7 nM
SMILES: O=C(NN1CCCC1)c1cc(Cc2n[nH]c(=O)c3cccnc23)ccc1F

IC50 [1]: 960 nM
SMILES: C[N+]12CCc3cc(O)c(O)cc3C1Cc1cc3c(cc12)OCO3 (configuration not stated)

IC50 [4]: 8.73 nM
SMILES: Cc1cc(O)nn1S(=O)(=O)c1ccc2[nH]c(=O)c(=O)[nH]c2c1

IC50 [2]: 63000 nM
SMILES: CCN(c1ccccc1)S(=O)(=O)c1ccc(NC(=O)C2CC(=O)c3cc(C)c(C)cc3O2)cc1 (configuration not stated)

IC50 [4]: 6.35 nM
SMILES: CC1=CSC(NNS(=O)(=O)c2ccc3[nH]c(=O)c(=O)[nH]c3c2)N1C(=O)c1ccccc1 (configuration not stated)

SMILES: Oc1ccc(C2CNCc3c(O)cccc32)cc1O (racemic)
IC50 [1]: 240 nM

logP [6]: 2.47
pKa [7]: 14
solubility [8]: 700 µg/mL (≈ 2180 µM)
logD [10]: -0.11
pKa [11]: 10.1
SMILES: NC(=O)c1cccc2cn(-c3ccc([C@@H]4CCCNC4)cc3)nc12 [NIRAPARIB]
IC50 [9]: 10000 nM

logP [6]: 1.96
pKa [7]: 9.96
logD [10]: 1.96
pKa [11]: 0.9
SMILES: O=C(c1cc(Cc2n[nH]c(=O)c3ccccc23)ccc1F)N1CCN(C(=O)C2CC2)CC1 [OLAPARIB]

SMILES: CNCc1ccc(-c2[nH]c3cc(F)cc4c3c2CCNC4=O)cc1 [RUCAPARIB]
logP [6]: 2.45
pKa [7]: 13.2
solubility [8]: 1000 µg/mL (≈ 3090 µM)
IC50 [9]: 23000 nM
logD [10]: 0.55
pKa [11]: 9.32

logP [6]: 2.11
pKa [7]: 9.48
solubility [8]: 17 µg/mL (≈ 44.7 µM)
logD [10]: 2.11
pKa [11]: 1.66
SMILES: Cn1ncnc1[C@H]1c2n[nH]c(=O)c3cc(F)cc(c23)N[C@@H]1c1ccc(F)cc1 [TALAZOPARIB]

— ChEMBL document CHEMBL5360556, “An overview of compound properties, multiparameter optimization, and computational drug design methods for PARP-1 inhibitor drugs” (Eur J Med Chem, 2023)
